In patent EP3046573B1, “AMYLIN ANALOGUES” (Zealand Pharma A/S, priority 2013, dated 2015):
Numbered stars: 1 amine (or outer) side, 2 acyl side, 3 side chain; on linkers, the order of the positions; unused ones are H or OH. Bridge positions count the residues as written; N and C are the ends. Square brackets hold non-standard residues; d marks the D form. Peptide text beside a SMILES is read from it. * marks the point of attachment. C20 diacid = O=C(O)CCCCCCCCCCCCCCCCCCC(=O)*; γGlu = O=C(O)[C@H](CCC(=O)[*:2])N[*:1]; NMeI = CC[C@H](C)[C@H](NC)C(=O)O; Sar = CNCC(=O)O

Molecular target: T1, human calcitonin receptor (hCTR2) (Homo sapiens, UniProt P30988)
T1 construct: expressed in transfected cells
T1 sequence (P30988 25-474): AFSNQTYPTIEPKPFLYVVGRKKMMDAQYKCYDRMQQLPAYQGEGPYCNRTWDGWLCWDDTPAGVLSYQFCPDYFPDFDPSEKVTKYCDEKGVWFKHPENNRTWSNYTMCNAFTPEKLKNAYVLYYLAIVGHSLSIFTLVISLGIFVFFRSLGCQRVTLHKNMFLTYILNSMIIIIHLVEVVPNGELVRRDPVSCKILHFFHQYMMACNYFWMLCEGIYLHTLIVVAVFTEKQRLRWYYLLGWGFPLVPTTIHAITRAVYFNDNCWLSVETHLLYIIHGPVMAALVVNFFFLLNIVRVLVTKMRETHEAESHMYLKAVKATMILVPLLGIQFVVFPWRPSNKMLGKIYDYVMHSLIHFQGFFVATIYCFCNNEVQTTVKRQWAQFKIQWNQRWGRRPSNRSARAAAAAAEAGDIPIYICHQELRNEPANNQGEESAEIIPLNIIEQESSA
Assay: hCTR2 assay: induction of cAMP (AlphaScreen cAMP Assay kit) in COS7 cells expressing hCTR2
Format: cell-based
Source text: The cell line COS7, originating from African Green Monkey kidney fibroblast cells, was used for establishment of the stable cell lines described below. The COS7 cellular background was used due to it being RAMP naive, and as such it provides the best available system for testing of the monomeric hCTR and different heterodimeric amylin receptor subtypes functionally generated by introduction of the individual RAMPs.
A cell line expressing the human calcitonin receptor (hCTR2) was generated in the COS7 cellular background as stable clones. In brief, hCTR2 (GI: 4502547) was amplified by PCR using primers encoding terminal restriction sites for subcloning. The 5'-end primers additionally encoded a near Kozak consensus sequence to ensure efficient translation. The fidelity of the DNA encoding the receptor was confirmed by DNA sequencing. The PCR products encoding the receptor were subcloned into a mammalian expression vector containing a neomycin (G418) resistance marker. The mammalian expression vector encoding the receptor was transfected into COS7 cells by a standard liposome transfection method. 48 hours post-transfection, cells were seeded for limited dilution cloning and selected with 1 mg/ml G418 in the culture medium. After 3 weeks, surviving colonies of hCTR2-expressing cells were picked, propagated and tested in the amylin efficacy assay as described in Example 3 below. One hCTR2-expressing clone was chosen for compound profiling.
In vitro activity of test peptides at the hCTR2 and hAMYR3 receptors was assessed by measuring the induction of cAMP following stimulation of the receptor by pramlintide or peptides of the invention using the AlphaScreen® cAMP Assay kit from Perkin-Elmer.
Briefly, COS7 cells expressing hCTR2 (see Example 2, above) were seeded at 30-40,000 cells per well in 96-well microtiter plates coated with 0.01 % poly-L-lysine, and grown for 1 day in culture in 100 µl growth medium [DMEM, 10% FCS, Penicillin (100 IU/ml), Streptomycin (100 µg/ml)]. On the day of analysis, growth medium was removed and the cells were washed once with 200 µl Tyrode buffer [Tyrode's Salts (9.6 g/l), 10 mM HEPES, pH 7.4]. Cells were incubated in 100 µl Tyrode buffer containing increasing concentrations of test peptides, 100 µM IBMX and 0.1% casein for 15 min at 37° C. The reaction was stopped by carefully decanting off the compound/buffer medium and replacing it with lysis/detection buffer (80 µl 0.1 % w/v BSA, 5 mM HEPES, 0.3 % v/v Tween-20 in deionized water). After incubation at room temperature for 10 min., the cAMP content of the resulting cell lysate was estimated according to the AlphaScreen® cAMP Assay manufacturer's instructions. EC50 values and relative efficacy values (in %) compared to reference peptide (Pramlintide) were estimated by computer-aided curve fitting using the 4-parameter logistic (4PL) non-linear model.
The in vitro activity results (expressed as EC50 values) for peptides of the invention and for Pramlintide (reference peptide) are summarized in Table 2, below.

Compound | EC50
CC[C@H](C)[C@@H](C(=O)N[C@@H](CC(C)C)C(=O)N[C@@H](CO)C(=O)N[C@@H](CO)C(=O)N[C@H](C(=O)N[C@@H](CC(N)=O)C(=O)N[C@H](C(=O)NCC(=O)N[C@@H](CO)C(=O)N[C@@H](CC(N)=O)C(=O)N[C@H](C(=O)N1CCC[C@H]1C(N)=O)[C@@H](C)O)C(C)C)[C@@H](C)O)N(C)C(=O)[C@H](C)NC(=O)CN(C)C(=O)[C@H](Cc1ccccc1)NC(=O)[C@H](CC(N)=O)NC(=O)[C@H](CC(N)=O)NC(=O)[C@H](CO)NC(=O)[C@H](CO)NC(=O)[C@H](Cc1c[nH]cn1)NC(=O)[C@H](Cc1c[nH]cn1)NC(=O)[C@H](CC(C)C)NC(=O)[C@H](Cc1ccccc1)NC(=O)[C@H](CCC(=O)O)NC(=O)[C@H](C)NC(=O)[C@@H](CC(C)C)NC(=O)[C@H](CCCNC(=N)N)NC(=O)[C@H](CCC(N)=O)NC(=O)[C@@H](NC(=O)[C@H](C)NC(=O)[C@@H]1CSSC[C@H](NC(=O)[C@H](CCCNC(=N)N)NC(=O)CC[C@H](NC(=O)CCCCCCCCCCCCCCCCCCC(=O)O)C(=O)O)C(=O)N[C@@H](CC(N)=O)C(=O)N[C@@H]([C@@H](C)O)C(=O)N[C@@H](C)C(=O)N[C@@H]([C@@H](C)O)C(=O)N1)[C@@H](C)O [Compound 6, [19CD]-isoGlu-RC()NTATC()ATQR-DLeu-AEFLHHSSNNF-Gly(Me)-A-Ile(Me)-LSSTNVGSNTP-NH2] ({C20 diacid-γGlu}-RCNTATCATQR[dL]AEFLHHSSNNF[Sar]A[NMeI]LSSTNVGSNTP-NH2; disulfide 2-7) | 7.8 nM
CC[C@H](C)[C@@H](C(=O)N[C@@H](CC(C)C)C(=O)N[C@@H](CO)C(=O)N[C@@H](CO)C(=O)N[C@H](C(=O)N[C@@H](CC(N)=O)C(=O)N[C@H](C(=O)NCC(=O)N[C@@H](CO)C(=O)N[C@@H](CC(N)=O)C(=O)N[C@H](C(=O)N1CCC[C@H]1C(N)=O)[C@@H](C)O)C(C)C)[C@@H](C)O)N(C)C(=O)[C@H](C)NC(=O)CN(C)C(=O)[C@H](Cc1ccccc1)NC(=O)[C@H](CC(N)=O)NC(=O)[C@H](CC(N)=O)NC(=O)[C@H](CO)NC(=O)[C@H](CO)NC(=O)[C@H](Cc1c[nH]cn1)NC(=O)[C@H](Cc1c[nH]cn1)NC(=O)[C@H](CC(C)C)NC(=O)[C@H](Cc1ccccc1)NC(=O)[C@H](CCC(=O)O)NC(=O)[C@@H](C)NC(=O)[C@H](CC(C)C)NC(=O)[C@H](CCCNC(=N)N)NC(=O)[C@H](CCC(N)=O)NC(=O)[C@@H](NC(=O)[C@H](C)NC(=O)[C@@H]1CSSC[C@H](NC(=O)[C@H](CCCNC(=N)N)NC(=O)CC[C@H](NC(=O)CCCCCCCCCCCCCCCCCCC(=O)O)C(=O)O)C(=O)N[C@@H]([C@@H](C)O)C(=O)N[C@@H](C)C(=O)N[C@@H]([C@@H](C)O)C(=O)N1)[C@@H](C)O [Compound 7, [19CD]-isoGlu-RC()TATC()ATQRL-DAla-EFLHHSSNNF-Gly(Me)-A-Ile(Me)-LSSTNVGSNTP-NH2] ({C20 diacid-γGlu}-RCTATCATQRL[dA]EFLHHSSNNF[Sar]A[NMeI]LSSTNVGSNTP-NH2; disulfide 2-6) | 1.9 nM
CC[C@H](C)[C@@H](C(=O)N[C@@H](CC(C)C)C(=O)N[C@@H](CO)C(=O)N[C@@H](CO)C(=O)N[C@H](C(=O)N[C@@H](CC(N)=O)C(=O)N[C@H](C(=O)NCC(=O)N[C@@H](CO)C(=O)N[C@@H](CC(N)=O)C(=O)N[C@H](C(=O)N1CCC[C@H]1C(N)=O)[C@@H](C)O)C(C)C)[C@@H](C)O)N(C)C(=O)[C@H](C)NC(=O)CN(C)C(=O)[C@H](Cc1ccccc1)NC(=O)[C@H](CC(N)=O)NC(=O)[C@H](CC(N)=O)NC(=O)[C@H](CO)NC(=O)[C@H](CO)NC(=O)[C@H](Cc1c[nH]cn1)NC(=O)[C@H](Cc1c[nH]cn1)NC(=O)[C@H](CC(C)C)NC(=O)[C@H](Cc1ccccc1)NC(=O)[C@@H](CCC(=O)O)NC(=O)[C@H](C)NC(=O)[C@H](CC(C)C)NC(=O)[C@H](CCCNC(=N)N)NC(=O)[C@H](CCC(N)=O)NC(=O)[C@@H](NC(=O)[C@H](C)NC(=O)[C@@H]1CSSC[C@H](NC(=O)[C@H](CCCNC(=N)N)NC(=O)CC[C@H](NC(=O)CCCCCCCCCCCCCCCCCCC(=O)O)C(=O)O)C(=O)N[C@@H](CC(N)=O)C(=O)N[C@@H]([C@@H](C)O)C(=O)N[C@@H](C)C(=O)N[C@@H]([C@@H](C)O)C(=O)N1)[C@@H](C)O [Compound 8, [19CD]-isoGlu-RC()NTATC()ATQRLA-DGlu-FLHHSSNNF-Gly(Me)-A-Ile(Me)-LSSTNVGSNTP-NH2] ({C20 diacid-γGlu}-RCNTATCATQRLA[dE]FLHHSSNNF[Sar]A[NMeI]LSSTNVGSNTP-NH2; disulfide 2-7) | 2.6 nM
CC[C@H](C)[C@@H](C(=O)N[C@@H](CC(C)C)C(=O)N[C@@H](CO)C(=O)N[C@@H](CO)C(=O)N[C@H](C(=O)N[C@@H](CC(N)=O)C(=O)N[C@H](C(=O)NCC(=O)N[C@@H](CO)C(=O)N[C@@H](CC(N)=O)C(=O)N[C@H](C(=O)N1CCC[C@H]1C(N)=O)[C@@H](C)O)C(C)C)[C@@H](C)O)N(C)C(=O)[C@H](C)NC(=O)CN(C)C(=O)[C@H](Cc1ccccc1)NC(=O)[C@H](CC(N)=O)NC(=O)[C@H](CC(N)=O)NC(=O)[C@H](CO)NC(=O)[C@H](CO)NC(=O)[C@H](Cc1c[nH]cn1)NC(=O)[C@H](Cc1c[nH]cn1)NC(=O)[C@H](CC(C)C)NC(=O)[C@@H](Cc1ccccc1)NC(=O)[C@H](CCC(=O)O)NC(=O)[C@H](C)NC(=O)[C@H](CC(C)C)NC(=O)[C@H](CCCNC(=N)N)NC(=O)[C@H](CCC(N)=O)NC(=O)[C@@H](NC(=O)[C@H](C)NC(=O)[C@@H]1CSSC[C@H](NC(=O)[C@H](CCCNC(=N)N)NC(=O)CC[C@H](NC(=O)CCCCCCCCCCCCCCCCCCC(=O)O)C(=O)O)C(=O)N[C@@H](CC(N)=O)C(=O)N[C@@H]([C@@H](C)O)C(=O)N[C@@H](C)C(=O)N[C@@H]([C@@H](C)O)C(=O)N1)[C@@H](C)O [Compound 9, [19CD]-isoGlu-RC()NTATC()ATQRLAE-DPhe-LHHSSNNF-Gly(Me)-A-Ile(Me)-LSSTNVGSNTP-NH2] ({C20 diacid-γGlu}-RCNTATCATQRLAE[dF]LHHSSNNF[Sar]A[NMeI]LSSTNVGSNTP-NH2; disulfide 2-7) | 1.1 nM
CC[C@H](C)[C@@H](C(=O)N[C@@H](CC(C)C)C(=O)N[C@@H](CO)C(=O)N[C@@H](CO)C(=O)N[C@H](C(=O)N[C@@H](CC(N)=O)C(=O)N[C@H](C(=O)NCC(=O)N[C@@H](CO)C(=O)N[C@@H](CC(N)=O)C(=O)N[C@H](C(=O)N1CCC[C@H]1C(N)=O)[C@@H](C)O)C(C)C)[C@@H](C)O)N(C)C(=O)[C@H](C)NC(=O)CN(C)C(=O)[C@H](Cc1ccccc1)NC(=O)[C@H](CC(N)=O)NC(=O)[C@H](CC(N)=O)NC(=O)[C@H](CO)NC(=O)[C@H](CO)NC(=O)[C@H](Cc1c[nH]cn1)NC(=O)[C@@H](Cc1c[nH]cn1)NC(=O)[C@H](CC(C)C)NC(=O)[C@H](Cc1ccccc1)NC(=O)[C@H](CCC(=O)O)NC(=O)[C@H](C)NC(=O)[C@H](CC(C)C)NC(=O)[C@H](CCCNC(=N)N)NC(=O)[C@H](CCC(N)=O)NC(=O)[C@@H](NC(=O)[C@H](C)NC(=O)[C@@H]1CSSC[C@H](NC(=O)[C@H](CCCNC(=N)N)NC(=O)CC[C@H](NC(=O)CCCCCCCCCCCCCCCCCCC(=O)O)C(=O)O)C(=O)N[C@@H](CC(N)=O)C(=O)N[C@@H]([C@@H](C)O)C(=O)N[C@@H](C)C(=O)N[C@@H]([C@@H](C)O)C(=O)N1)[C@@H](C)O [Compound 11, [19CD]-isoGlu-RC()NTATC()ATQRLAEFL-DHis-HSSNNF-Gly(Me)-A-Ile(Me)-LSSTNVGSNTP-NH2] ({C20 diacid-γGlu}-RCNTATCATQRLAEFL[dH]HSSNNF[Sar]A[NMeI]LSSTNVGSNTP-NH2; disulfide 2-7) | 2.3 nM
